Each block holds one molecule with its values, some of them ahead of it.
How the values were obtained:
[1] = target: NQO1 (Homo sapiens, UniProt P15559); assay: Inhibition of recombinant NQO1, DCPIP reduction; type: biochemical
[2] = target: T1, NQO2 (Homo sapiens, UniProt P16083); assay: Inhibition of recombinant NQO2, menadione as substrate with BNAH; type: biochemical
T1 sequence (P16083 1-231): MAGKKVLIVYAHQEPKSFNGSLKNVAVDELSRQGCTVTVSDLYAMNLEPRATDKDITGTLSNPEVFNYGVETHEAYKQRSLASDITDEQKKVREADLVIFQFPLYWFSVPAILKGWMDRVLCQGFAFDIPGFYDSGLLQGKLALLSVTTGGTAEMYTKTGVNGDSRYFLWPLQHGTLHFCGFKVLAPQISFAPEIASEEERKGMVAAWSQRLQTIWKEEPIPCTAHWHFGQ

[3] = target: T1, NQO2; assay: Inhibition of recombinant NQO2, MTT reduction with BNAH; type: biochemical
[4] = target: T1, NQO2; assay: Inhibition of recombinant NQO2, DCPIP reduction with BNAH; type: biochemical
[5] = tested on: CYP; conditions: up to 25 μM of tacrine, all four microsomal-activated drugs (data not shown)
[6] = target: T1, NQO2; conditions: 0.25 μM NQO2, tacrine 0, 5, 10, or 20 μM, 50 μM quinone imine
[7] = cited from earlier work
[8] = target: T1, NQO2; assay: Enzyme kinetics of DCPIP reduction by NQO2; type: biochemical; conditions: 50 nM NQO2, 100 µM BNAH

Chain of NQO1 (P15559 whole entry): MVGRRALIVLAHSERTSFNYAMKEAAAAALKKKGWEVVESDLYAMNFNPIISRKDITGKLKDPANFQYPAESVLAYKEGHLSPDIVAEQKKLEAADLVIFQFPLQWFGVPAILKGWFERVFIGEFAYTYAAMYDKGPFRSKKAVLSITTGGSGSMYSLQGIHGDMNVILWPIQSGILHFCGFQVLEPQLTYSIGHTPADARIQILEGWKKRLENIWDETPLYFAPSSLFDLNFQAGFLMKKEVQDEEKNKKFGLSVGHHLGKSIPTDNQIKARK

inhibition of NQO1 activity ([1]; up to 1 mM): did not inhibit
inhibition of NQO2 activity ([2]; up to 1 mM): did not inhibit
SMILES: CC(=O)Nc1ccc(O)cc1 [Acetaminophen, acetaminophen]

SMILES: Nc1c2c(nc3ccccc13)CCCC2 [tacrine]
Ki [3]: 15 ± 1 µM
Ki [1]: 193 ± 1 µM
Ki ([4]; Ki value, range over DCPIP and MTT as substrate): 3 to 15 µM
Ki ([4]; Ki, recombinant NQO2, substrate DCPIP (25 μM), 100 μM BNAH, mean ± SD (n = 3)): 3 ± 1 µM
Ki fold lower than found for NQO2 inhibition by resveratrol ([4]; substrate DCPIP): 9 fold
Ki for NQO2 fold lower compared to the Ki for NQO1 ([4]; substrate DCPIP): 64 fold
effect on CYP metabolism [5]: no effect
inhibition of NQO2-mediated reduction of synthetic amodiaquine quinone imine [6]: concentration-dependent inhibition
plasma concentration of tacrine in humans [7]: around 0.04 μM

Ki [1]: 13 µM
SMILES: O=C(O)Cc1ccccc1Nc1c(Cl)cccc1Cl [diclofenac]

SMILES: O=C1C(Cl)=CC(=Nc2ccc(O)cc2)C=C1Cl [DCPIP, 2,6-dichlorophenolindophenol]
Km [8]: 25 µM

Ki [1]: 40 µM
Ki [2]: 66 µM
SMILES: Cc1cccc(Nc2ccccc2C(=O)O)c1C [mefenamic acid]

Source: PMC5997408 (Chemical Research in Toxicology, 2017)
